Molecules are shown by their SMILES.

Results on 1 compound are retold here after US20100137314A1, “HARMFUL ORGANISM CONTROL COMPOSITION” (priority 2007, published 2010).

Experiment [1] relates to Bemisia tabaci. Description: Test Example 2: cabbage leaf disc immersion test, life or death of Bemisia tabaci imagoes after 2 days. In kind it is in vivo. To be noted: compound X alone 2000 ppm. How it is done:
Ten parts of the compound I-(138) was dissolved in 40 parts of xylene and 40 parts of N,N-dimethylformamide, and thereto was added 10 parts of Sorpol 3005X (manufactured by TOHO Chemical Industry Co., LTD.). The mixture was stirred well to prepare a formulation.
The formulation of the compound X prepared in Test Example 1 was diluted with water to a predetermined concentration (2000 ppm). To the water dilution was added the formulation of the compound I-(138) so that the concentration of the compound I became a predetermined concentration (800 ppm). To the resulting dilution was added 1/5000 by volume of a spreading agent (New Rinou manufactured by Nihon Nohyaku) to prepare a test diluted solution.
Separately, the formulation of the compound I-(138) was diluted with water to a predetermined concentration (800 ppm). To the water dilution was added 1/5000 by volume of a spreading agent (New Rinou manufactured by Nihon Nohyaku) to prepare a test diluted solution. […]
On the other hand, 3 mL of 1% agar was put in a glass cup having an internal diameter of 2.6 cm and a height of 4.5 cm. […] After 2 days, the life or death of the Bemisia tabaci imagoes was determined, and a controlling value was calculated by the above-described equation.

Experiment [2] relates to Bemisia tabaci. Description: Test Example 1: cabbage leaf disc immersion test, life or death of Bemisia tabaci imagoes after 4 days. In kind it is in vivo. The note with it: foliar, 96 h, compound X alone 1000 ppm, cabbage leaf disc immersed 30 seconds, read-out: Pest controlling value (%). How it is done: Ten parts of the compound X was dissolved in 40 parts of xylene and 40 parts of N,N-dimethylformamide, and thereto was added 10 parts of Sorpol 3005X (manufactured by TOHO Chemical Industry Co., LTD.). The mixture was stirred well to prepare a formulation. Separately, 10 parts of any one of the compound I-(5), the compound I-(34), the compound I-(68), the compound I-(70), the compound I-(74), the compound I-(115), the compound I-(117), the compound I-(119), the compound I-(204) and the compound I-(213) was dissolved in 40 parts of xylene and 40 parts of N,N-dimethylformamide, and thereto was added 10 parts of Sorpol 3005X (manufactured by TOHO Chemical Industry Co., LTD.). The mixture was stirred well to prepare a formulation. The formulation of the compound X was diluted with water to a predetermined concentration (1000 ppm). […] After 4 days, the life or death of the Bemisia tabaci imagoes was determined, and a controlling value was calculated by the following equation: […] wherein Cb: the number of insects in a non-treated section before treatment, Cai: the number of insects in a non-treated section on observation, Tb: the number of insects in a treated-section before treatment, Tai: the number of insects in a treated section on observation. […]

With `CC#CCOc1cc(Cc2ccccc2Cl)ncn1` [compound X, 4-(2-chlorobenzyl)-6-(2-butynyloxy)pyrimidine], the “Pest controlling value (%)” value in experiment [1] is 26%. The pest or weed control at 1000 ppm in experiment [2] was 25%.
